{"source": "paper PMC10121968", "about": "“Fosgonimeton, a Novel Positive Modulator of the HGF/MET System, Promotes Neurotrophic and Procognitive Effects in Models of Dementia” (Neurotherapeutics, 2022)", "key": {"[1]": {"target": "T1, MET receptor (Homo sapiens, UniProt P08581)", "T1 construct": "pMET enzyme-linked immunosorbent assay (ELISA) of human embryonic kidney (HEK293) cell lysates; endogenous in cells; host or cells: HEK293 (ATCC CRL-1573)", "T1 sequence (P08581 308-1390 limits assumed)": "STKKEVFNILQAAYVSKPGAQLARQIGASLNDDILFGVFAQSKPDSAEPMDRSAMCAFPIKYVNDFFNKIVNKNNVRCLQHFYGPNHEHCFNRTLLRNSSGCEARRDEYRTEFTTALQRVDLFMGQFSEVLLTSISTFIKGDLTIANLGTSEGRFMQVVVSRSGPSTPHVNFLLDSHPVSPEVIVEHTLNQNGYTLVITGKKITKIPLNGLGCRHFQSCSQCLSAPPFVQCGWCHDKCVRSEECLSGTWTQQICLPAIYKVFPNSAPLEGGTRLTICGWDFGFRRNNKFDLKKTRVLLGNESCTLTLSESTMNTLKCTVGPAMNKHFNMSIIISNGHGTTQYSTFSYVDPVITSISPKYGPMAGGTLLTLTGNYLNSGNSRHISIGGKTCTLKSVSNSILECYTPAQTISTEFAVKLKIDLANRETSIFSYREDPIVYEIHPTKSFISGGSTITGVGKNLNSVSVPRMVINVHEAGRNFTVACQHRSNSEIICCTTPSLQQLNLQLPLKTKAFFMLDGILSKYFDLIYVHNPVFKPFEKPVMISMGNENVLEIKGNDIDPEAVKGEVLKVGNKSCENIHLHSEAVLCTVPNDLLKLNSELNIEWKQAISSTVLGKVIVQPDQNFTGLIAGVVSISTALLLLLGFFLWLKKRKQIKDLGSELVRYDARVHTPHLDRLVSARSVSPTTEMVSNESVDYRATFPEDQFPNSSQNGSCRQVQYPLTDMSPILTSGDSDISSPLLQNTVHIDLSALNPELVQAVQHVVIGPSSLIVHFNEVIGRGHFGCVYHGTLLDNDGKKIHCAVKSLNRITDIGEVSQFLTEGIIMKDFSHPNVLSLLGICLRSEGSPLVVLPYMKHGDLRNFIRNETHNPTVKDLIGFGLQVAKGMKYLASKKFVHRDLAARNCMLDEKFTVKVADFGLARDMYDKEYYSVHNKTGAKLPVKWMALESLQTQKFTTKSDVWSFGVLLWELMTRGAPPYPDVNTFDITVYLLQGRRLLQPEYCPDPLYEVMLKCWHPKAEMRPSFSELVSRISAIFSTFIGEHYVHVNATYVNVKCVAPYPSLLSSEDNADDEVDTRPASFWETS", "T1 sequence (P08581 25-307 limits assumed)": "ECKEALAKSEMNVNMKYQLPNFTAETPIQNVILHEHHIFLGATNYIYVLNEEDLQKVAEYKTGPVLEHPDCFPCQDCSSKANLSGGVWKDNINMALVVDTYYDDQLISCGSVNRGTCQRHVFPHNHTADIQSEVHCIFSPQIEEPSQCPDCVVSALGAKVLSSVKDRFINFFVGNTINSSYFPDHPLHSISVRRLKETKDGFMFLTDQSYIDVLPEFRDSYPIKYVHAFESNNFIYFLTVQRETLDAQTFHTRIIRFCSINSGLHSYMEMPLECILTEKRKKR", "assay": "Phosphorylated MET receptor (pMET) ELISA in HEK293 cell lysates", "format": "cell-based", "details": "HEK293 cells, 1 ng/mL HGF, 0.001–100 nM, 15 min", "description": "Human embryonic kidney (HEK293, ATCC CRL-1573) cells were grown at 37 °C, 5% CO2 in Dulbecco's Modified Eagle Medium (DMEM) + 10% fetal bovine serum (FBS) in T-75 flasks until approximately 90% confluent and then seeded in polystyrene-treated 6-well plates for at least 8 h in serum-free growth media. Recombinant HGF protein (R&D Systems, Minneapolis, Minnesota) with or without experimental small-molecule treatment cocktails (Jubilant Biosys, Uttar Pradesh, India) were prepared in DMEM + 0.1% FBS and added to wells in triplicate for 15 min. Cells were lysed with 180 μL ice-cold RIPA buffer including a phosphatase inhibitor (PhosphataseArrest, G-Biosciences, St. Louis, Missouri) on ice for 15 min and then cleared by centrifugation at 16,000 g. Bicinchoninic acid (BCA) assays of lysates were used to normalize protein concentration across samples. Phosphorylated MET receptor (pMET) enzyme-linked immunosorbent assay (ELISA) kit processing was carried out according to the manufacturer’s instructions (Phospho-MET [Tyr1234/1235] Sandwich ELISA Kit, CST #7227C, Cell Signaling Technology, Danvers, Massachusetts). Raw absorbance signals were scaled between subthreshold (1 ng/mL HGF) and saturating (10 ng/mL HGF) controls such that HGF 1 ng/mL = 1 and HGF 10 ng/mL = 10. The statistical difference from subthreshold control was determined by Student’s t-test. […]"}, "[2]": {"system": "TNF-α", "assay": "TNF-α release in LPS-challenged THP-1 macrophages (ELISA)", "format": "cell-based, human", "details": "1 µM, 20 min pretreatment, LPS 50 ng/mL 24 h, vs LPS + vehicle", "description": "To determine the effect of fosgo-AM on LPS-induced cytokine release, we sought to determine the levels of interleukin-1β (IL-1β), interleukin-6 (IL-6), and tumor necrosis factor-α (TNF-α) in LPS-challenged THP-1–differentiated macrophages in the presence and absence of fosgo-AM. THP-1 monocytes were grown at 37 °C, 5% CO2 in Roswell Park Memorial Institute (RPMI) medium + 10% FBS until approximately 80% confluent. Cells were seeded in polystyrene-treated 96-well cell culture plates at approximately 50,000 cells/well in 100-µL complete media. 100 µL Phorbol myristate acetate was then added to each well for a final concentration of 100 ng/mL. The plate was then incubated for 3 days at 37 °C, 5% CO2 to prime the monocytes into macrophages. […] For cytokine quantification, cell culture supernatant was assayed by HTRF kits to assess levels of IL-1β (Human IL-1β kit, #62HIL1BPEG, Cisbio, Codolet, France) and IL-6 (Human IL-6 kit, 62HIL06PET, Cisbio, Codolet, France), and by ELISA (Human TNF-α ELISA kit, KHC3011, ThermoFisher, Waltham, Massachusetts) to determine the levels of TNF-α. […] Fluorescence emission at 2 different wavelengths (665 nm and 620 nm) were measured on an Envision plate reader (PerkinElmer, Waltham, Massachusetts), and HTRF ratio of the acceptor and donor emission signals for each well was calculated as follows: HTRF ratio = (665 nm/620 nm) × 10,000. […]"}}, "note": "Non-standard residues stand in square brackets, D forms with d. Residues, ends and D or L forms follow the SMILES beside them. *: point of attachment. Hexanoyl = CCCCCC(=O)*; Ahx = NCCCCCC(=O)O", "data": [{"smiles": "CCCCCC(=O)N[C@@H](Cc1ccc(O)cc1)C(=O)N[C@H](C(=O)NCCCCCC(N)=O)[C@@H](C)CC", "note": "[fosgo-AM] (Hexanoyl-Tyr-Ile-[Ahx]-NH2)", "values": [{"measurement": "enhancement of pMET levels in the presence of low HGF", "setting": "[1]", "value": "most potent positive modulator of HGF/MET"}, {"measurement": "TNF-α release", "setting": "[2]", "value": "significant decrease"}]}]}
